Measurements reported in patent US20260263334A1, “COMPOSITIONS CONTAINING NITRATE-RICH FOODS AND EXTRACTS FOR SHIFTING THE ORAL MICROBIOME” (WM. WRIGLEY JR. COMPANY, priority 2023, published 2026).

Legend:
salivary bacteria = assay: nitrate reductase (NR) activity of human salivary bacteria (Griess reagent); type: cell-based
Description: Human stimulated saliva was collected from two subjects and tested for NR activity in the presence of nitrate, cysteine and a combination of nitrate and cysteine. The Griess test was used for nitrite production.
Two subjects were evaluated in this study. The subjects refrained from oral hygiene and eating the night before and morning of the test and their stimulated saliva was collected after chewing 1 g of gum base for 5 minutes. The saliva samples were stored immediately on ice, diluted 1:1 with D.I. H2O and used as a bacterial source for nitrate reductase (NR) activity testing under anaerobic condition.
The contents in each reaction mixture contained (mL):
Detection of the end product of NR and nitrite was by the Griess reagent at OD550 nm readings.

saliva = assay: ex vivo production of H2S by saliva (headspace, gas chromatograph with chemiluminescent sulfur detector); type: cell-based, human; settings: saliva mixed with cysteine
[1] = test system: Aggregatibacter actinomycetemcomitans (A.a.); assay: nitrate reductase (NR) activity of A.a. (Griess test); type: cell-based; settings: for NR activity (OD) of A.a in the presence of cysteine: Cysteine 1%, 0.3% nitrate source
Description: (§1) For evaluation of nitric oxide producing capability of oral bacteria, overnight cultures of test organisms were washed once and transferred into a medium without any nitrate or nitrite compounds. A 0.5% (or 1%) KNO3 was added to the medium, and further incubated anaerobically at 37° C. for 24-48 hours. The concentration of nitrite (due to reduction of nitrate by nitrate reductase) was determined by Griess Test over a desired period of time.
(§2) To examine the effect of natural and chemical antimicrobial agents on NO production, test bacteria were pre-exposed to magnolia bark extract (MBE) (a natural germ-kill compound), peppermint oil, and chlorhexidine (CHX). The activities of nitrate reductase from oral bacteria were assayed by Griess test as described above. No treatment controls were included for each test bacterial species. The production of nitrite was reduced if the test antimicrobial compounds affected the nitrate reductase activity. Dose response curves were prepared.
A. actinomycetemcomitans (A.a.) was grown anaerobically in THB broth supplemented with 1% yeast extract with 0.001% Hemin, and 0.0001% Vitamin K.
The nitrate source KNO3 (0.1% final) was added to respective growth media for individual test bacteria and incubated for 24-48 hours, then 20 μl of the culture broth was withdrawn and tested for nitrite with Griess reagent.
Test bacteria were grown in respective media anaerobically for 48 hours. Cells were centrifuged and re-suspended in buffer or fresh medium for NR activity testing. […]
(§3) Test bacteria cells were incubated with 1% cysteine in growth medium and 0.3% of a nitrate source. Controls contained no cysteine.

[2] = test system: Veillonella atypica (ATCC 17744) (V.a.); assay: nitrate reductase (NR) activity of V.a (Griess test); type: cell-based; settings: Cysteine 1%
Description: as §1, §2
V. atypica was grown in RCM medium without (NH4)2SO4 (to avoid the NH4 affecting Griess reagent); and without agar (0.05%, to avoid affecting the OD measurement).
The method used was the same as that for A.a., except the V.a cell concentration was adjusted to OD550 nm=0.7 (10^8 CFR/ml) in Reduced Transport buffer. The NR activity was also determined in the same buffer system. […]
as §3

NR activity of A.a ([1]; addition of cysteine (1%)) | NR activity of salivary bacteria (salivary bacteria; cysteine 0.25% in addition to nitrate (KNO3 3%), saliva of two subjects) | SMILES | NR activity of salivary bacteria (nitrite production) (salivary bacteria; KNO3 3%, saliva of two subjects) | H2S generated in the headspace air (saliva) | NR activity (OD) of A.a in the presence of cysteine ([1]; 1st trial, 2 hr) | NR activity (OD) of A.a in the presence of cysteine ([1]; 1st trial, 3 hr) | NR activity (OD) of A.a in the presence of cysteine ([1]; 2nd trial, 2 hr) | NR activity (OD) of A.a in the presence of cysteine ([1]; 2nd trial, 3 hr) | NR activity (OD) of A.a in the presence of cysteine ([1]; 3rd trial, 2 hr) | NR activity (OD) of A.a in the presence of cysteine ([1]; 3rd trial, 3 hr) | NR activity (OD) of V.a in the presence of cysteine ([2]; 1st trial, 2 hr) | NR activity (OD) of V.a in the presence of cysteine ([2]; 1st trial, 3 hr) | NR activity (OD) of V.a in the presence of cysteine ([2]; 2nd trial, 2 hr) | NR activity (OD) of V.a in the presence of cysteine ([2]; 2nd trial, 3 hr) | NR activity (OD) of V.a in the presence of cysteine ([2]; 3rd trial, 2 hr) | NR activity (OD) of V.a in the presence of cysteine ([2]; 3rd trial, 3 hr) | reduction of NR activity (salivary bacteria; addition of cysteine, pooled saliva from 4 subjects, OD600 nm=0.7, 1.0 and 1.5)
 |  | O=[N+]([O-])[O-].[K+] [KNO3, potassium nitrate] | induced NR activity |  |  |  |  |  |  |  |  |  |  |  |  |  | 
not significantly affected | decrease in NR activity | N[C@@H](CS)C(=O)O [cysteine, L-cysteine] |  | 20 ppm | 0.207 OD | 0.672 OD | 0.994 OD | 0.928 OD | 0.832 OD | 0.919 OD | 0.372 OD | 0.711 OD | 0.487 OD | 0.808 OD | 1.139 OD | 1.144 OD | 23-49%
